Source: patent US5248667A, “Method of treating psoriasis using synthetic peptide compositions” (The United States of America as represented by the …, priority 1991, dated 1993)

System: normal volunteers
Experiment: CNS or immunologic toxicity in volunteers
Type: in vivo, human
Conditions: all patients / normal volunteers
Experimental: 1. 6 male research subjects with histories of substance abuse, childhood dyslexia, and depression, have received Peptide T intravenously in doses ranging from 0.033 mg/kg to 0.133 mg/kg per day for seven days.
2. a WM HIV seronegative normal volunteer received Peptide T both intranasally and sublingually at 12.5 mg BID for one week coincidentally reported improvement in multiple red, scaling pruritic areas located in scalp and lower neck areas. This individual has a history of mild psoriasis which, by personal choice, has been treated with only topical treatments including hydrocortisone, coal tar derivatives, and calamine lotion.
3. No evidence of either CNS or immunologic toxicity associated with drug administration was aobserved in any of these patients in any of these normal volunteers.

## C[C@@H](N)C(=O)N[C@@H](CO)C(=O)N[C@H](C(=O)N[C@H](C(=O)N[C@H](C(=O)N[C@@H](CC(N)=O)C(=O)N[C@@H](Cc1ccc(O)cc1)C(=O)N[C@H](C(N)=O)[C@@H](C)O)[C@@H](C)O)[C@@H](C)O)[C@@H](C)O [Peptide T, D-Ala-Ser-Thr-Thr-Thr-Asn-Tyr-Thr-amide]
  CNS or immunologic toxicity associated with drug administration: No evidence
